Source: patent publication US6989396B2, “Tropane alkaloid multidrug resistance inhibitors from Erythroxylum pervillei and use of the same” (The Board of Trustees of the University of Illinois, priority 2001, dated 2006)
In brackets after ≈: the same amount, converted by molar mass. Where two headings read alike, the source gives them in different places.

Experiments:
[1] = test system: KB, oral epidermoid carcinoma; assay: In vitro cytotoxicity, human tumor panel: KB; type: cell-based; details: Homo sapiens, read-out: ED50 KB
Method: (§1) Cytotoxicity assay. Compounds 1–9 were evaluated for cytotoxic activity against a panel of human cancer cell lines, including KB-V1 in the presence and absence of VLB, according to an established protocol (68).

Lu1, lung cancer = assay: In vitro cytotoxicity, human tumor panel: Lu1; type: cell-based; details: Homo sapiens, read-out: ED50 Lu1
Method: as §1

HCT-15, colon = assay: In vitro multidrug resistance modulation (DINIB synergy): HCT-15; type: cell-based, human; details: increase of cytotoxicity of DINIB 1 × 10^−4 M; modulator μg/mL: verapamil 12.5, cyclosporin A 6.3, pervilleine B 12.5, C 3.1, D 50.0, F 25.0; <25 insignificant, >100 strong synergy
Text: (§2) Alkaloids 5–7 and 9 were further evaluated for their efficacy as potential modulators of P-glycoprotein. This assay assessed the ability of these test compounds to increase the cytotoxicity of an agent of the MDR phenotype {4,9-dihydro-3-iso-butyl-2-methyl-1-(p-nitrophenacyl)-4,9-dioxo-1H-naphth[2-3-d]imidazolium bromide (DINIB)}, compared with an agent not of the MDR phenotype (5-flurouracil), used as a negative control (73, 74).
(§3) In vitro multidrug resistance assay.

KB-V1 cells [2] = assay: Reversal of MDR, cell survival assay: KB-V1 with or without vinblastine; type: cell-based, human; details: for IC50: Homo sapiens, KB-V1, absence of vinblastine, 72 hours, read-out: IC50 KB-V1 (−); for Ratio of IC50 values [KB-V1 (−)]/[KB-V1 (+)]: vinblastine 1 μg/ml
Method: (§4) One part of a natural product drug discovery program involves monitoring the potential of plant extracts to reverse multiple drug resistance. […] To investigate the potential of plant extracts or compounds to reverse multidrug-resistance, KB-V1 cells are treated with different concentrations of plant extracts or compounds in the presence (1 μg/ml) or absence of vinblastine.
Cytotoxic potential. The cytotoxic potential of test substances with KB-3, KB-V1 and KB-8-5 cells was determined as described previously (24). Briefly, various concentrations of test compounds (dissolved in 10 μl of 10% DMSO) were transferred to 96-well plates, and 190 μl aliquots of cell suspensions (5×10^4 cells/ml) were added to each well. The plates then were incubated for 72 hours at 37° C. (100% humidity with a 5% CO2 atmosphere in air), and 100 μl of cold 20% aqueous trichloroacetic acid were added to the growth medium in each well to fix the cells. The cultures were incubated at 4° C. for 30 minutes, washed, air-dried, stained with sulforhodamine B solution, and washed with 1% acetic acid. […] In each case, a zero-day control was performed by adding an equivalent number of cells to several wells and incubating at 37° C. for 30 minutes, and processing as described above. Optical density values obtained with the zero-day control were subtracted, and cell survival, relative to control (solvent-treated) cultures, was calculated. The cytotoxic potential of the compounds with CEM and CEM/VLB100 cells was determined as described by Beck et al. (30). Cells were grown in 24-well plates at a density of 5–6×10^5 cells/ml. At 48 hours, the cell number was determined using a Coulter Counter, with a channelizer to distinguish cells from debris.

BC1, breast cancer = assay: In vitro cytotoxicity, human tumor panel: BC1; type: cell-based; details: Homo sapiens, read-out: ED50 BCI
Method: as §1

LOX IMVI, melanoma = assay: In vitro multidrug resistance modulation (DINIB synergy): LOX IMVI; type: cell-based, human; details: increase of cytotoxicity of DINIB 1 × 10^−4 M; modulator μg/mL: verapamil 12.5, cyclosporin A 6.3, pervilleine B 12.5, C 3.1, D 50.0, F 25.0; <25 insignificant, >100 strong synergy
Text: as §2, §3

KB-V1 cells [3] = assay: In vivo hollow fiber test: KB-V1; set-up: species or system NCr nu/nu mice; details: for growth inhibition, administered as single agents: KB-V1 or KB-8-5 cells in hollow fibers implanted into NCr nu/nu mice; for Calculated inhibition (vinblastine + reversing agent as single agents), KB-V1, i.p. site / Calculated inhibition (vinblastine + reversing agent as single agents), KB-V1, s.c. site: summation of single-agent inhibitions; for Observed inhibition from coadministration with vinblastine, KB-V1, s.c. site / Observed inhibition from coadministration with vinblastine, KB-V1, i.p. site: vinblastine 250 μg/kg + reversing agent 0.136 mmol/kg; for Observed inhibition from coadministration with vinblastine, KB-V1, i.p. site / Growth inhibition, single agent, KB-V1, s.c. site: i.p. injection once daily days 3–6; for Growth inhibition, single agent, KB-V1, s.c. site: vinblastine 250 μg/kg, reversing agents 0.136 mmol/kg
Method: In vivo hollow fiber test. […] Confluent monolayers of KB-3, KB-V1 or KB-8-5 cells were harvested, collected by centrifugation and resuspended in conditioned medium at a concentration of 7.5×10^5 cells/ml.
Test compounds were administrated once daily by intraperitoneal injection from day 3–6 after implantation. Body weights were measure daily.
After incubating at 37° C. for 4 hours, the culture medium was aspirated and the samples were washed twice with normal saline containing 2.5% protamine sulfate solution by overnight incubation at 4° C. […] The formazan was extracted from each sample with DMSO (250 μl/well) for 4 hours at room temperature on a rotation platform.

[4] = test system: SW626, human ovarian adenocarcinoma; assay: In vitro cytotoxicity, human tumor panel: SW626; type: cell-based; details: SW626, read-out: ED50 SW626
Method: as §1

[5] = test system: LNCaP, hormone-dependent prostate cancer; assay: In vitro cytotoxicity, human tumor panel: LNCaP; type: cell-based; details: Homo sapiens, LNCaP, read-out: ED50 LNCaP
Method: as §1

CAKI-1, renal = assay: In vitro multidrug resistance modulation (DINIB synergy): CAKI-1; type: cell-based, human; details: increase of cytotoxicity of DINIB 1 × 10^−4 M; modulator μg/mL: verapamil 12.5, cyclosporin A 6.3, pervilleine B 12.5, C 3.1, D 50.0, F 25.0; <25 insignificant, >100 strong synergy
Text: as §2, §3

[6] = test system: SKOV3 (ovarian adenocarcinoma); assay: Cytotoxicity in ovarian adenocarcinoma SKOV3 (pGp -ve); type: cell-based; details: Homo sapiens, SK-OV-3, read-out: IC50 SKOV3 (pGp − ve)
Method: as §1

[7] = test system: SKVLB (ovarian adenocarcinoma, multidrug resistance); assay: Multidrug resistance inhibition in SKVLB (pGp +ve); type: cell-based, human; details: Homo sapiens
KB-V1, drug resistant KB = assay: In vitro cytotoxicity, human tumor panel: KB-V1 with or without vinblastine; type: cell-based; details: for IC50: Homo sapiens, KB-V1, drug-resistant KB assessed in the absence of vinblastine, read-out: ED50 KB-V1−; for ED50 KB-V1+: drug resistant KB assessed in presence of vinblastine (1 μg/mL)
Method: as §1

KB-3 cells = assay: Growth inhibitory potential (sulforhodamine B cell survival assay): KB-3; type: cell-based; details: Homo sapiens, KB3, 72 h, read-out: IC50 KB-3
Method: as §4
Cytotoxic potential. The cytotoxic potential of test substances with KB-3, KB-V1 and KB-8-5 cells was determined as described previously (24). Briefly, various concentrations of test compounds (dissolved in 10 μl of 10% DMSO) were transferred to 96-well plates, and 190 μl aliquots of cell suspensions (5×10^4 cells/ml) were added to each well. The plates then were incubated for 72 hours at 37° C. (100% humidity with a 5% CO2 atmosphere in air), and 100 μl of cold 20% aqueous trichloroacetic acid were added to the growth medium in each well to fix the cells. The cultures were incubated at 4° C. for 30 minutes, washed, air-dried, stained with sulforhodamine B solution, and washed with 1% acetic acid. Finally, 200 μl of 10 mM Tris base were added to each well and the optical densities were determined at 515 nm utilizing an ELISA plate reader. In each case, a zero-day control was performed by adding an equivalent number of cells to several wells and incubating at 37° C. for 30 minutes, and processing as described above. Optical density values obtained with the zero-day control were subtracted, and cell survival, relative to control (solvent-treated) cultures, was calculated. The cytotoxic potential of the compounds with CEM and CEM/VLB100 cells was determined as described by Beck et al. (30). Cells were grown in 24-well plates at a density of 5–6×10^5 cells/ml. At 48 hours, the cell number was determined using a Coulter Counter, with a channelizer to distinguish cells from debris.

Col2, colon cancer = assay: In vitro cytotoxicity, human tumor panel: Col2; type: cell-based; details: Homo sapiens, read-out: ED50 Col2
Method: as §1

UO-31, renal = assay: In vitro multidrug resistance modulation (DINIB synergy): UO-31; type: cell-based, human; details: increase of cytotoxicity of DINIB 1 × 10^−4 M; modulator μg/mL: verapamil 12.5, cyclosporin A 6.3, pervilleine B 12.5, C 3.1, D 50.0, F 25.0; <25 insignificant, >100 strong synergy
Text: as §2, §3

[8] = read-out: IC50 BSKVLB (pGp + ve)
[9] = read-out: IC50 SKVLB (pGp + ve), addition of adriamycin

| Compound | IC50 [1] [µg/mL] | IC50 (Lu1, lung cancer) [µg/mL] | synergy value at a 95% confidence level, HCT-15 (HCT-15, colon) | IC50 (KB-V1 cells [2]) [µM] | Ratio of IC50 values [KB-V1 (−)]/[KB-V1 (+)] (KB-V1 cells [2]) | IC50 (BC1, breast cancer) [µg/mL] | synergy value at a 95% confidence level, LOX IMVI (LOX IMVI, melanoma) | growth inhibition, administered as single agents (KB-V1 cells [3]) | Calculated inhibition (vinblastine + reversing agent as single agents), KB-V1, i.p. site (KB-V1 cells [3]) [%] | Calculated inhibition (vinblastine + reversing agent as single agents), KB-V1, s.c. site (KB-V1 cells [3]) [%] | Observed inhibition from coadministration with vinblastine, KB-V1, s.c. site (KB-V1 cells [3]) | Growth inhibition, single agent, KB-V1, s.c. site (KB-V1 cells [3]) [%] | IC50 [4] [µg/mL] | IC50 [5] [µg/mL] | synergy value at a 95% confidence level, CAKI-1 (CAKI-1, renal) | IC50 [6] [µM] | IC50 (KB-V1, drug resistant KB) [µg/mL] | ED50 KB-V1+ (KB-V1, drug resistant KB) [µg/mL] | IC50 (Col2, colon cancer) [µg/mL] | synergy value at a 95% confidence level, UO-31 (UO-31, renal) | further results |
| --- | --- | --- | --- | --- | --- | --- | --- | --- | --- | --- | --- | --- | --- | --- | --- | --- | --- | --- | --- | --- | --- |
| COc1cc(C=CC(=O)O[C@H]2C[C@@H]3C[C@H](OC(=O)c4cc(OC)c(OC)c(OC)c4)C[C@H]2N3C)cc(OC)c1OC [Compound 5, 3α-(3,4,5-trimethoxybenzoyloxy)-6β-(3,4,5-trimethoxycinnamoyloxy)tropane] | > 20 | 3.1 (≈ 5.42 µM) | 607.6 | 15 | 88 | 9.4 (≈ 16.4 µM) | 33.3 | not significantly inhibited | 9.4 | 3.8 | 1.4 (P = 0.87) % | 0 | 3.2 (≈ 5.6 µM) | 1 (≈ 1.75 µM) | 268.1 | 3.8 | 8.8 (≈ 15.4 µM) | 0.1 | 1.3 (≈ 2.27 µM) | 248.7 | Observed inhibition from coadministration with vinblastine, KB-V1, i.p. site (KB-V1 cells [3]; listed as pervilleine B): 66.8 (P < 0.0001) %; IC50 [7, 8]: > 10 µM; IC50 [7, 9]: 0.12 µM; IC50 (KB-3 cells): > 35 µM |
| COc1cc(C=CC(=O)O[C@H]2C[C@H]3C[C@H](OC(=O)C=Cc4cc(OC)c(OC)c(OC)c4)[C@@H](C2)N3C)cc(OC)c1OC [Compound 6, 3α,6β-di-(3,4,5-trimethoxycinnamoyloxy)tropane] | 2.2 (≈ 3.68 µM) | 2.3 (≈ 3.85 µM) | 946.7 | 15 | 88 | 2.8 (≈ 4.68 µM) | 32.6 | not significantly inhibited | 15.9 | 3.8 | 0.2 (P = 0.96) % | 0 | 1.4 (≈ 2.34 µM) | > 20 | 332.3 | 2.8 | 9 (≈ 15.1 µM) | 0.1 | 4.1 (≈ 6.86 µM) | 444.0 | Observed inhibition from coadministration with vinblastine, KB-V1, i.p. site (KB-V1 cells [3]; listed as pervilleine C): 77.7 (P < 0.0001) %; IC50 [7, 8]: > 10 µM; IC50 [7, 9]: 0.08 µM; IC50 (KB-3 cells): 3.7 µM |
| COc1cc(C=CC(=O)O[C@@H]2C[C@@H]3[C@@H](OC(=O)C=Cc4cc(OC)c(OC)c(OC)c4)[C@@H](O)[C@H](C2)N3C)cc(OC)c1OC [Compound 7, 3α,6β-di-(3,4,5-trimethoxycinnamoyloxy)-7β-hydroxytropane] | 11 (≈ 17.9 µM) | 15.1 (≈ 24.6 µM) | 758.3 | – | – | 15 (≈ 24.4 µM) | 13.2 | – | – | – | – | – | 6.5 (≈ 10.6 µM) | 14.1 (≈ 23 µM) | 387.9 | – | 9 (≈ 14.7 µM) | 0.2 | 4.9 (≈ 7.98 µM) | 562.7 | melting point: 59 to 61 °C |
| COc1cc(C=CC(=O)O[C@H]2C[C@@H]3C[C@H](OC(=O)Cc4ccccc4)C[C@H]2N3C)cc(OC)c1OC [Compound 9, 3α-phenylacetoxy-6β-(3,4,5-trimethoxycinnamoyloxy)-tropane] | > 20 | > 20 | 714.7 | – | – | > 20 | 59.2 | – | – | – | – | – | > 20 | > 20 | 342.1 | – | > 20 | 0.2 | 4.9 (≈ 9.89 µM) | 364.4 | melting point: 59 to 61 °C |
| cyclosporin A [reference compound] | – | – | 719.1 | – | – | – | 72.9 | – | – | – | – | – | – | – | 273.3 | – | – | – | – | 642.1 | – |
